Measured values from PubChem BioAssay AID2125 (NMMLSC, 2009).
Active and inactive are the calls of the source.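 Rule for the calls: active = combined score above 50, rising as EC50 falls below 10 µM and growth at top dose drops; inactive = the rest.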 Peptide text beside a SMILES is read from it. * marks the point of attachment. Cbz = O=C(OCc1ccccc1)*

Assays:
Assay in all cases: yeast strain panel proliferation effects – secondary panel, OD600, 26S proteasome disassembly project, profiling panel (AID 2125)
Conditions in all cases: S. cerevisiae strain panel, growth OD600, 6-8 h
YE3955 = tested on: YE3955
YE3957 = tested on: YE3957
YE3962 = tested on: YE3962
YE3963 = tested on: YE3963
YE3965 = tested on: YE3965
YE4005 = tested on: YE4005
YE4006 = tested on: YE4006
YE4010 = tested on: YE4010
YE4012 = tested on: YE4012
[1] = at 100 µM, stronger effect = lower value

Structure (SMILES) | percent response (growth) (YE3955; [1]) | percent response (growth) (YE3957; [1]) | EC50 (YE3962) [µM] | percent response (growth) (YE3963; [1]) | percent response (growth) (YE3965; [1]) | percent response (growth) (YE4005; [1]) | EC50 (YE4006) | EC50 (YE4010) [µM] | percent response (growth) (YE4012; [1]) | EC50 (YE3955) [µM] | EC50 (YE3957) [µM] | percent response (growth) (YE3962; [1]) | EC50 (YE3963) [µM] | EC50 (YE3965) [µM] | EC50 (YE4005) [µM] | percent response (growth) (YE4006; [1]) | percent response (growth) (YE4010; [1]) | EC50 (YE4012)
CC(=O)N1C(=O)C(=C2C=C(C)OC(C)=C2)c2ccccc21 | 70.6% (inactive) | 100% (inactive) | 0.16 | 63.5% (inactive) | 34.3% (inactive) | 70.5% (inactive) | 36 µM (inactive) | 0.13 | 96.9% (inactive) |  |  |  |  |  |  |  |  | 
CC(C)C[C@@H](C=O)NC(=O)[C@H](CC(C)C)NC(=O)[C@H](CC(C)C)NC(=O)OCc1ccccc1 (Cbz-Leu-Leu-Leu-aldehyde) |  |  |  |  |  |  |  |  |  | 0.9 | 2.86 | 47.5% (inactive) | 0.93 | 1.05 | 1.24 | 63.7% (inactive) | 75.5% (inactive) | 1550 µM (inactive)
